{"source": "patent US20260216238A1", "about": "“TETRATHIOMOLYBDIC ACID FOR USE IN TREATING COPPER METABOLISM-ASSOCIATED DISEASES OR DISORDERS (WILSON DISEASE)” (Alexion Pharmaceuticals, Inc., priority 2023, published 2026)", "system": "patients with Wilson disease (WD)", "assay": "UWDRS Part III total score, functional subscale and individual items (neurological examination)", "assay_type": "in vivo, human", "settings": "for UWDRS Part III change from baseline, LSM Diff (TTM vs SoC) / UWDRS Part III change from baseline, Mean / UWDRS Part III change from baseline, Median / UWDRS Part III change from baseline, LSM: patients symptomatic at baseline; for UWDRS Part III change from baseline, LSM: MMRM; for UWDRS Part III (0-175) change from baseline, LSM / UWDRS Part III (0-175) change from baseline, Mean / UWDRS Part III functional subscale (0-10) change from baseline, LSM / UWDRS Part III functional subscale (0-10) change from baseline, Mean / UWDRS Part III-arising from chair (0-4) change from baseline, LSM / UWDRS Part III-arising from chair (0-4) change from baseline, Mean / UWDRS Part III-gait (0-4) change from baseline, LSM / UWDRS Part III-gait (0-4) change from baseline, Mean / UWDRS Part III-handwriting (0-4) change from baseline, LSM / UWDRS Part III-handwriting (0-4) change from baseline, Mean / UWDRS Part III-speech (0-4) change from baseline, LSM / UWDRS Part III-speech (0-4) change from baseline, Mean: Study 301 TTM long term set", "description": "The UWDRS scoring system was developed specifically for the motor and movement disorders associated with chronic copper neurotoxicity in WD. Some individual items/subscales of the UWDRS Part III (arising from a chair, gait, handwriting, and speech) in addition to the UWDRS Parts I, II, and III overall, were assessed to further define the range of burdensome signs and symptoms of WD, so as to further understand the assessment of treatment effects on patients with WD. The UWDRS scores for consciousness (Part I) and abnormal neurologic examination findings (Part III) will be determined by a trained neurologist rater who is blinded to study treatment randomization. These scores were used to provide a rigorous dataset for evaluating changes from baseline.\nUnified Wilson Disease Rating Scale (Parts I, II, and III): The UWDRS is a clinical rating scale designed to evaluate the neurological manifestations of WD that generally can be divided into 3 movement disorder syndromes: dystonic, ataxic, and Parkinsonian syndrome. The UWDRS comprises 3 parts: UWDRS Part I (level of consciousness, item 1), UWDRS Part II (a patient-reported review of daily activity items [disability], items 2 to 11), and UWDRS Part III (a detailed neurological examination, items 12 to 34).\nThe UWDRS Part I and Part III were assessed by a neurologist who is blinded to the treatment randomization, while UWDRS Part II may be reported to a non-blinded member of the study team by the patient, family member, or caregiver. The UWDRS has not been formally evaluated in adolescents. However, the components of Part I (level of consciousness), Part II (patient or caregiver-reported disability) and Part III (neurologic examination findings) were not fundamentally different between adults and adolescents. Patients aged 12 years and older were expected to be able to comply with UWDRS assessments.\nPooled results from all such participants will be integrated together into one timeline to allow analyses of changes in UWDRS, long-term copper control, and long-term safety laboratory data.\nEndpoints (directly measured non-ceruloplasmin-bound copper [dNCC], UWDRS III (rater blinded) total and individual item scores, Clinical Global Impression-Improvement [CGI-I]) were evaluated at baseline (BL) and Week 48 (W48). Normalization (score decrease to 0), improvement (≥1 point decrease), stability (no change), or worsening (≥1 point increase) of total and individual UWDRS III item scores were evaluated at W48.", "key": {"[1]": {"settings": "Week 48, Cohort 1, Total (Studies 301, 201, 205), n=127"}}}
{"substance": "bis-choline tetrathiomolybdate [TTM]", "values": [{"measurement": "UWDRS-III, Change from Baseline, Median", "setting": "[1]", "value": "−1.00"}, {"measurement": "UWDRS-III, Change from Baseline, Min", "setting": "[1]", "value": "−48.0,"}, {"measurement": "UWDRS-III, Change from Baseline, Q1", "setting": "[1]", "value": "−6.00,"}, {"measurement": "UWDRS-III, Change from Baseline, Q3", "setting": "[1]", "value": 0.00}, {"measurement": "UWDRS-III, Change from Baseline, LSM Diff (TTM vs. SoC)", "setting": "Week 48, Cohort 1, TTM Total vs SoC Study 301, P-value 0.1295", "value": "−1.97"}, {"measurement": "UWDRS-III, Change from Baseline, LSM", "setting": "Week 48, Cohort 1, TTM Total, SoC Study 301", "value": "−3.62"}, {"measurement": "UWDRS Part III change from baseline, LSM Diff (TTM vs SoC)", "setting": "Week 48, Cohort 1", "value": "−0.79"}, {"measurement": "UWDRS Part III change from baseline, Mean", "setting": "Week 48, Cohort 1", "value": "−2.86"}, {"measurement": "UWDRS Part III change from baseline, Median", "setting": "Week 48, Cohort 1", "value": "−2.00"}, {"measurement": "UWDRS Part III change from baseline, LSM", "setting": "Week 48, Cohort 1", "value": "−2.68"}, {"measurement": "UWDRS Part III change from baseline, LSM Diff (TTM vs SoC)", "setting": "Week 48, Cohort 2", "value": 0.05}, {"measurement": "UWDRS Part III change from baseline, Mean", "setting": "Week 48, Cohort 2", "value": "−3.10"}, {"measurement": "UWDRS Part III change from baseline, Median", "setting": "Week 48, Cohort 2", "value": "−3.00"}, {"measurement": "UWDRS Part III change from baseline, LSM", "setting": "Week 48, Cohort 2", "value": 1.43}, {"measurement": "UWDRS Part III change from baseline, LSM Diff (TTM vs SoC)", "setting": "Week 48, Overall", "value": "−0.33"}, {"measurement": "UWDRS Part III change from baseline, Mean", "setting": "Week 48, Overall", "value": 2.91}, {"measurement": "UWDRS Part III change from baseline, Median", "setting": "Week 48, Overall", "value": "−2.00"}, {"measurement": "UWDRS Part III change from baseline, LSM", "setting": "Week 48, Overall", "value": "−1.54"}, {"measurement": "UWDRS Part III (0-175) change from baseline, LSM", "setting": "Week 48", "value": "−2.47"}, {"measurement": "UWDRS Part III (0-175) change from baseline, Mean", "setting": "Week 48", "value": "−2.32"}, {"measurement": "UWDRS Part III functional subscale (0-10) change from baseline, LSM", "setting": "Week 48", "value": "−0.230"}, {"measurement": "UWDRS Part III functional subscale (0-10) change from baseline, Mean", "setting": "Week 48", "value": "−0.235"}, {"measurement": "UWDRS Part III-arising from chair (0-4) change from baseline, LSM", "setting": "Week 48", "value": 0.0}, {"measurement": "UWDRS Part III-arising from chair (0-4) change from baseline, Mean", "setting": "Week 48", "value": 0.0}, {"measurement": "UWDRS Part III-gait (0-4) change from baseline, LSM", "setting": "Week 48", "value": "−0.26"}, {"measurement": "UWDRS Part III-gait (0-4) change from baseline, Mean", "setting": "Week 48", "value": "−0.18"}, {"measurement": "UWDRS Part III-handwriting (0-4) change from baseline, LSM", "setting": "Week 48", "value": "−0.1"}, {"measurement": "UWDRS Part III-handwriting (0-4) change from baseline, Mean", "setting": "Week 48", "value": "−0.2"}, {"measurement": "UWDRS Part III-speech (0-4) change from baseline, LSM", "setting": "Week 48", "value": "−0.1"}, {"measurement": "UWDRS Part III-speech (0-4) change from baseline, Mean", "setting": "Week 48", "value": "−0.1"}, {"measurement": "UWDRS Part III (0-175) change from baseline, LSM", "setting": "Week 72", "value": "−3.47"}, {"measurement": "UWDRS Part III (0-175) change from baseline, Mean", "setting": "Week 72", "value": "−3.27"}, {"measurement": "UWDRS Part III functional subscale (0-10) change from baseline, LSM", "setting": "Week 72", "value": "−0.253"}, {"measurement": "UWDRS Part III functional subscale (0-10) change from baseline, Mean", "setting": "Week 72", "value": "−0.290"}, {"measurement": "UWDRS Part III-arising from chair (0-4) change from baseline, LSM", "setting": "Week 72", "value": "−0.1"}, {"measurement": "UWDRS Part III-arising from chair (0-4) change from baseline, Mean", "setting": "Week 72", "value": "−0.1"}, {"measurement": "UWDRS Part III-gait (0-4) change from baseline, LSM", "setting": "Week 72", "value": "−0.15"}, {"measurement": "UWDRS Part III-gait (0-4) change from baseline, Mean", "setting": "Week 72", "value": "−0.12"}, {"measurement": "UWDRS Part III-handwriting (0-4) change from baseline, LSM", "setting": "Week 72", "value": "−0.2"}, {"measurement": "UWDRS Part III-handwriting (0-4) change from baseline, Mean", "setting": "Week 72", "value": "−0.2"}, {"measurement": "UWDRS Part III-speech (0-4) change from baseline, LSM", "setting": "Week 72", "value": "−0.1"}, {"measurement": "UWDRS Part III-speech (0-4) change from baseline, Mean", "setting": "Week 72", "value": "−0.1"}, {"measurement": "UWDRS Part III (0-175) change from baseline, LSM", "setting": "Week 96", "value": "−4.77"}, {"measurement": "UWDRS Part III (0-175) change from baseline, Mean", "setting": "Week 96", "value": "−4.09"}, {"measurement": "UWDRS Part III functional subscale (0-10) change from baseline, LSM", "setting": "Week 96", "value": "−0.386"}, {"measurement": "UWDRS Part III functional subscale (0-10) change from baseline, Mean", "setting": "Week 96", "value": "−0.503"}, {"measurement": "UWDRS Part III-arising from chair (0-4) change from baseline, LSM", "setting": "Week 96", "value": "−0.1"}, {"measurement": "UWDRS Part III-arising from chair (0-4) change from baseline, Mean", "setting": "Week 96", "value": "−0.2"}, {"measurement": "UWDRS Part III-gait (0-4) change from baseline, LSM", "setting": "Week 96", "value": "−0.12"}, {"measurement": "UWDRS Part III-gait (0-4) change from baseline, Mean", "setting": "Week 96", "value": "−0.11"}, {"measurement": "UWDRS Part III-handwriting (0-4) change from baseline, LSM", "setting": "Week 96", "value": "−0.3"}, {"measurement": "UWDRS Part III-handwriting (0-4) change from baseline, Mean", "setting": "Week 96", "value": "−0.4"}, {"measurement": "UWDRS Part III-speech (0-4) change from baseline, LSM", "setting": "Week 96", "value": "−0.2"}, {"measurement": "UWDRS Part III-speech (0-4) change from baseline, Mean", "setting": "Week 96", "value": "−0.2"}, {"measurement": "UWDRS Part III (0-175) change from baseline, LSM", "setting": "Week 120", "value": "−5.27"}, {"measurement": "UWDRS Part III (0-175) change from baseline, Mean", "setting": "Week 120", "value": "−4.08"}, {"measurement": "UWDRS Part III functional subscale (0-10) change from baseline, LSM", "setting": "Week 120", "value": "−0.392"}, {"measurement": "UWDRS Part III functional subscale (0-10) change from baseline, Mean", "setting": "Week 120", "value": "−0.410"}, {"measurement": "UWDRS Part III-arising from chair (0-4) change from baseline, LSM", "setting": "Week 120", "value": "−0.1"}, {"measurement": "UWDRS Part III-arising from chair (0-4) change from baseline, Mean", "setting": "Week 120", "value": "−0.2"}, {"measurement": "UWDRS Part III-gait (0-4) change from baseline, LSM", "setting": "Week 120", "value": 0.04}, {"measurement": "UWDRS Part III-gait (0-4) change from baseline, Mean", "setting": "Week 120", "value": 0.26}, {"measurement": "UWDRS Part III-handwriting (0-4) change from baseline, LSM", "setting": "Week 120", "value": "−0.3"}, {"measurement": "UWDRS Part III-handwriting (0-4) change from baseline, Mean", "setting": "Week 120", "value": "−0.5"}, {"measurement": "UWDRS Part III-speech (0-4) change from baseline, LSM", "setting": "Week 120", "value": "−0.2"}, {"measurement": "UWDRS Part III-speech (0-4) change from baseline, Mean", "setting": "Week 120", "value": "−0.1"}, {"measurement": "UWDRS Part III (0-175) change from baseline, LSM", "setting": "Week 144", "value": "−6.38"}, {"measurement": "UWDRS Part III (0-175) change from baseline, Mean", "setting": "Week 144", "value": "−5.99"}, {"measurement": "UWDRS Part III functional subscale (0-10) change from baseline, LSM", "setting": "Week 144", "value": "−0.489"}, {"measurement": "UWDRS Part III functional subscale (0-10) change from baseline, Mean", "setting": "Week 144", "value": "−0.573"}, {"measurement": "UWDRS Part III-arising from chair (0-4) change from baseline, LSM", "setting": "Week 144", "value": "−0.2"}, {"measurement": "UWDRS Part III-arising from chair (0-4) change from baseline, Mean", "setting": "Week 144", "value": "−0.3"}, {"measurement": "UWDRS Part III-gait (0-4) change from baseline, LSM", "setting": "Week 144", "value": "−0.25"}, {"measurement": "UWDRS Part III-gait (0-4) change from baseline, Mean", "setting": "Week 144", "value": 0.00}, {"measurement": "UWDRS Part III-handwriting (0-4) change from baseline, LSM", "setting": "Week 144", "value": "−0.3"}]}
